# Read-outs that look alike come from different tables or passages of the source.
# Key:
# Assay type in all cases: cell-based, Candida tropicalis
# [1] = tested on: Y6604 (NCYC 4190); assay: Xylose utilisation of Y6604 in the presence of increased inhibitor concentrations; conditions: high or increasing inhibitor concentrations, minimal media, shake flasks
# Description: FIG. 4 show graphs illustrating xylose utilisation profiles of Y6604 (NCYC 4190) in the presence of increased inhibitor concentrations. Graphs A, B, C, D, E and F represent strain performance in the presence of increasing concentrations of vanillin (VAN), transcinnamic acid (TRANSC), hydroxyl-benzaldehyde (HBA), syringaldehyde (S), furfural (F) and hydroxyl-methyl furfural (HMF) respectively. Indicated values in the legend represent concentrations in mg/100 mL. Xylose values are the mean of two replicates in minimal media in shake flasks;
# Strain Y6604 (NCYC 4190) was compared with other xylose-utilizing isolates from the gut of click beetle to assess its inhibitor tolerance and xylose to xylitol conversion. […] Despite slower Y6604 (NCYC 4190) growth in corn stover hydrolysate, xylose consumption and subsequent xylitol production was largely unaffected when compared to other isolates (FIG. 2 A, B) and increased amounts of the sugar alcohol at a comparatively higher rate of production were apparent in hydrolysates obtained from Miscanthus (FIG. 2 C, D) and wheat straw (FIG. 2 E, F). Phylogenetic analysis of the D1/D2 domain confirmed strain identity to be Candida tropiclis (FIG. 3). Having observed the enhanced efficacy of Y6604 (NCYC 4190) in hydrolysates with high inhibitor loadings, the isolate's tolerance threshold to common inhibitors by measuring xylose uptake rates (FIG. 4) was then assessed.
# [2] = tested on: ΔΔXyl2; conditions: YNB media; for starting xylose attenuated/bioconverted by ΔΔXyl2 with co-substrate: binary mixture of xylose and co-substrate
# [3] = tested on: ΔΔXyl2; conditions: WSH; for starting xylose converted by ΔΔXyl2 with co-substrate: maltose value by 72 hr
Molecule,effect on xylose utilisation/uptake [1],starting xylose attenuated/bioconverted by ΔΔXyl2 with co-substrate [2],starting xylose converted by ΔΔXyl2 with co-substrate [3],rate of xylose conversion by ΔΔXyl2 with co-substrate [2],other results
COc1cc(C=O)cc(OC)c1O [syringaldehyde],delayed xylose utilisation,–,–,–,–
"O=Cc1ccc(CO)o1 [HMF, hydroxyl-methyl furfural]",enhance pentose uptake,–,–,–,–
O=C[C@H](O)[C@@H](O)[C@@H](O)[C@H](O)CO [galactose],–,34%,more than 90%,–,rate of xylose conversion by ΔΔXyl2 with co-substrate [3]: 0.5 g/h; time to complete co-substrate exhaustion [3]: ≤ 7 h; arabitol accumulation with co-substrate ([3]; compared to other potential co-substrates (FIG. 7G)): high amount of arabitol accumulation
O=Cc1ccco1 [furfural],completely abolished xylose uptake,–,–,–,–
COc1cc(C=O)ccc1O [vanillin],delayed xylose utilisation,–,–,–,–
O=C(O)/C=C/c1ccccc1 [transcinnamic acid],delayed xylose utilisation,–,–,–,–
OCC(O)CO [glycerol],–,–,around 94%,around 0.4 g xylose per hr,–
OC[C@H]1O[C@H](O[C@H]2[C@H](O)[C@@H](O)C(O)O[C@@H]2CO)[C@H](O)[C@@H](O)[C@@H]1O (mixture of isomers) [maltose],–,70%,more than 95%,0.5 g xylose per hr,rate of xylose conversion by ΔΔXyl2 with co-substrate [3]: 0.78 g/h
O=C(CO)[C@@H](O)[C@H](O)[C@H](O)CO [fructose],–,54%,–,around 0.4 g xylose per hr,–
hydroxyl-benzaldehyde,delayed xylose utilisation,–,–,–,–

# From patent publication US11535872B2, “Microbial strains and uses thereof” (priority 2017, dated 2022)
